The values below come from patent publication US20220289794A1, “SYNTHETIC ANTIMICROBIAL PEPTIDES” (priority 2019, published 2022).

The subject of test [1] is Streptococcus pneumoniae ATCC 51938. To be noted: S. pneumoniae ATCC 51938.
The subject of test [2] is Klebsiella pneumoniae (ATCC BAA-1705). To be noted: Table 16, Gram-negative panel.
Test [3] has as its system Methicillin-resistant Staphylococcus aureus MRSA (ATCC BAA-1556). To be noted: MRSA ATCC BAA-1556.
The test system of test [4] is B. cereus (ATCC-13061). Kind of test: Broad-spectrum activity against Gram-Positive bacteria (MIC). Type of test: cell-based. Details: unit not given here.
Test [5] deals with E. coli (ATCC BAA-2452). The test can be described thus: Broad-spectrum activity against Gram-Negative bacteria (MIC). Type of test: cell-based. To be noted: Table 16, Gram-negative panel.
Test [6] has as its system Enterococcus faecium ATCC 27270. To be noted: E. faecium ATCC 27270.
In test [7] the test system is Enterococcus faecalis ATCC 29212. To be noted: E. faecalis ATCC 29212.
Test [8] deals with Escherichia coli (ATCC 25922). To be noted: E. coli ATCC 25922.
Test [9] concerns A. baumannii (ATCC BAA-1605). The test can be described thus: Broad-spectrum activity against Gram-Negative bacteria (MIC). Format: cell-based. To be noted: Table 16, Gram-negative panel.
The subject of test [10] is P. aeruginosa (ATCC 10145). The description is as above. Format: cell-based. To be noted: Table 16, Gram-negative panel.
Test [11] relates to Streptococcus pneumoniae ATCC 49619. To be noted: S. pneumoniae ATCC 49619.
Test [12] has as its system Pseudomonas aeruginosa (ATCC 27883). To be noted: P. aeruginosa ATCC 27883.
The subject of test [13] is Klebsiella pneumoniae ATCC 13883. To be noted: Table 16, Gram-negative panel.
Test [14] deals with P. aeruginosa (ATCC BAA-1744). The test can be described thus: Broad-spectrum activity against Gram-Negative bacteria (MIC). Format: cell-based. To be noted: Table 16, Gram-negative panel.
Test [15] concerns Enterococcus faecium ATCC 700221. To be noted: E. faecium ATCC 700221.
The test system of test [16] is B. subtilis (ATCC-6633). Kind of test: Broad-spectrum activity against Gram-Positive bacteria (MIC). Details: unit not given here. Format: cell-based.
Test [17] concerns S. aureus ATCC 29213. To be noted: S. aureus ATCC 29213.
Test [18] deals with Enterococcus faecalis ATCC 51575. To be noted: E. faecalis ATCC 51575.

For the substance “c[Arg-Arg-Arg-Arg-dip-Trp-dip] [IFX-098]”, the “Broad-spectrum activity S. pneumoniae (ATCC 51938)” value in test [1] turned out to be 25. Moreover, the MIC K. pneumonia (ATCC BAA-1705) in [2] was 25 µg/mL. Also, the “MIC MRSA ATCC BAA-1556” value in test [3] came out at 1.5 µg/mL. Further, the “Broad-spectrum activity B. cereus (ATCC-13061)” value in test [4] was found to be 3.1. Also, the MIC E. coli (ATCC BAA-2452) in [5] came to 25 µg/mL. Further, the “Broad-spectrum activity E. faecium (ATCC 27270)” value in test [6] is listed as 3.1. In test [7], the “Broad-spectrum activity E. faecalis (ATCC 29212)” value was determined as 6.2. Further, the “MIC E. coli ATCC 25922” value in [8] came out at 12.5 µg/mL. Also, the MIC A. baumannii (ATCC BAA-1605) in test [9] was 12.5 µg/mL. Besides, in test [10], the MIC P. aeruginosa (ATCC 10145) turned out to be 25 µg/mL. Besides, the “Broad-spectrum activity S. pneumoniae (ATCC 49619)” value in [11] was determined as 50. In addition, the “MIC P. aeruginosa ATCC 27883” value in test [12] worked out at 12.5 µg/mL. The substance also came in with an MIC K. pneumonia (ATCC 13883) in test [13] of 50 µg/mL. Also, the MIC P. aeruginosa (ATCC BAA-1744) in test [14] stood at 25 µg/mL. The “Broad-spectrum activity E. faecium (ATCC 700221)” value in test [15] was found to be 6.2. In addition, the “Broad-spectrum activity B. subtilis (ATCC-6633)” value in test [16] came out at 1.5. In addition, the “MIC S. aureus ATCC 29213” value in test [17] amounted to 3.1 µg/mL. The “Broad-spectrum activity E. faecalis (ATCC 51575)” value in test [18] is 12.5.

For the substance “c[Arg-Arg-Arg-Arg-dip-trp-dip] [IFX-100]”, the “Broad-spectrum activity S. pneumoniae (ATCC 51938)” value in test [1] is recorded as 12.5. For the same substance, the MIC K. pneumonia (ATCC BAA-1705) in [2] turned out to be 25 µg/mL. In test [3], the “MIC MRSA ATCC BAA-1556” value is 1.5 µg/mL. In addition, in test [4], the “Broad-spectrum activity B. cereus (ATCC-13061)” value was 3.1. This substance also registered an MIC E. coli (ATCC BAA-2452) in test [5] of 25 µg/mL. The “Broad-spectrum activity E. faecium (ATCC 27270)” value in [6] was determined as 3.1. Moreover, in [7], the “Broad-spectrum activity E. faecalis (ATCC 29212)” value is reported as 6.2. In [8], the “MIC E. coli ATCC 25922” value was 12.5 µg/mL. In test [9], this substance had an MIC A. baumannii (ATCC BAA-1605) of 12.5 µg/mL. The MIC P. aeruginosa (ATCC 10145) in [10] was found to be 50 µg/mL. Also, in [11], the “Broad-spectrum activity S. pneumoniae (ATCC 49619)” value was 25. In test [12], the “MIC P. aeruginosa ATCC 27883” value amounted to 12.5 µg/mL. This substance also gave an MIC K. pneumonia (ATCC 13883) in test [13] of over 50 µg/mL. Also, in test [14], the MIC P. aeruginosa (ATCC BAA-1744) turned out to be 25 µg/mL. For the same substance, in test [15], the “Broad-spectrum activity E. faecium (ATCC 700221)” value is 6.2. For the same substance, the “Broad-spectrum activity B. subtilis (ATCC-6633)” value in [16] is on record as 1.5. The “MIC S. aureus ATCC 29213” value in [17] came out at 1.5 µg/mL. Moreover, the “Broad-spectrum activity E. faecalis (ATCC 51575)” value in test [18] worked out at 12.5.

As for “c[Arg-Arg-Arg-Arg-naI-trp-naI] [IFX-143]”, the “Broad-spectrum activity S. pneumoniae (ATCC 51938)” value in test [1] came out at 12.5. For the same substance, the MIC K. pneumonia (ATCC BAA-1705) in [2] was 25 µg/mL. Besides, in test [3], the “MIC MRSA ATCC BAA-1556” value was 3.1 µg/mL. Further, the “Broad-spectrum activity B. cereus (ATCC-13061)” value in test [4] came to 6.2. This substance showed an MIC E. coli (ATCC BAA-2452) in [5] of 25 µg/mL. Also, in test [6], the “Broad-spectrum activity E. faecium (ATCC 27270)” value turned out to be 3.1. The “Broad-spectrum activity E. faecalis (ATCC 29212)” value in test [7] is recorded as 6.2. The “MIC E. coli ATCC 25922” value in test [8] was 16 µg/mL. The same substance had an MIC A. baumannii (ATCC BAA-1605) in test [9] of 12.5 µg/mL. For the same substance, the MIC P. aeruginosa (ATCC 10145) in test [10] amounted to 50 µg/mL. Besides, the “Broad-spectrum activity S. pneumoniae (ATCC 49619)” value in test [11] turned out to be 50. Further, the “MIC P. aeruginosa ATCC 27883” value in test [12] worked out at 64 µg/mL. Moreover, the MIC K. pneumonia (ATCC 13883) in [13] is over 50 µg/mL. This substance also showed an MIC P. aeruginosa (ATCC BAA-1744) in test [14] of 25 µg/mL. Further, the “Broad-spectrum activity E. faecium (ATCC 700221)” value in [15] is 3.1. Moreover, in [16], the “Broad-spectrum activity B. subtilis (ATCC-6633)” value is listed as 3.1. Moreover, in test [17], the “MIC S. aureus ATCC 29213” value came out at 1.5 µg/mL. Also, the “Broad-spectrum activity E. faecalis (ATCC 51575)” value in [18] came to 12.5.

For the substance “c[Arg-Arg-Arg-arg-Dip-Dip-Dip] [IFX-063]”, the “Broad-spectrum activity S. pneumoniae (ATCC 51938)” value in test [1] is given as 12.5. For the same substance, in test [2], the MIC K. pneumonia (ATCC BAA-1705) was 12.5 µg/mL. Also, the “MIC MRSA ATCC BAA-1556” value in test [3] was 3.1 µg/mL. Further, in [4], the “Broad-spectrum activity B. cereus (ATCC-13061)” value came out at 3.1. For the same substance, in test [5], the MIC E. coli (ATCC BAA-2452) came out at 12.5 µg/mL. Besides, in test [6], the “Broad-spectrum activity E. faecium (ATCC 27270)” value is 3.1. Besides, the “Broad-spectrum activity E. faecalis (ATCC 29212)” value in test [7] was determined as 6.2. For the same substance, the “MIC E. coli ATCC 25922” value in [8] was determined as 12.5 µg/mL. Further, the MIC A. baumannii (ATCC BAA-1605) in test [9] was determined as 6.2 µg/mL. Moreover, the MIC P. aeruginosa (ATCC 10145) in test [10] was determined as 25 µg/mL. For the same substance, the “Broad-spectrum activity S. pneumoniae (ATCC 49619)” value in test [11] stood at 25. Moreover, in test [12], the “MIC P. aeruginosa ATCC 27883” value is 12.5 µg/mL. Also, in [13], the MIC K. pneumonia (ATCC 13883) worked out at 50 µg/mL. In [14], this substance gave an MIC P. aeruginosa (ATCC BAA-1744) of 25 µg/mL. In [15], the “Broad-spectrum activity E. faecium (ATCC 700221)” value was found to be 1.5. In addition, in test [16], the “Broad-spectrum activity B. subtilis (ATCC-6633)” value is on record as 1.5. In addition, the “MIC S. aureus ATCC 29213” value in test [17] amounted to 3.1 µg/mL. In test [18], the “Broad-spectrum activity E. faecalis (ATCC 51575)” value is 12.5.
